Where two headings read alike, the source gives them in different places.
Experiments:
P. falciparum = experiment: In vitro anti-malarial activity, [3H]-hypoxanthine incorporation assay; assay type: cell-based; conditions: Plasmodium falciparum
Procedure: The in vitro anti-malarial activity was measured using the [3H]-hypoxanthine incorporation assay with various strains of P. falciparum (Roche). Results were expressed as the concentration corresponding to 50% inhibition. The anti-malarial assays were performed at the Swiss Tropical Institute, Basel, Switzerland.

mammalian cytotoxicity = experiment: Toxicity assay, colorimetric MTT assay (mammalian cytotoxicity); assay type: cell-based; conditions: data from two independent assays
Procedure: Toxicity was determined by using the colorimetric 3-(4,5-dimethylthiazol-2-yl)-2,5-diphenyltetrazoliumbromide (MTT) assay. The toxicity assays were performed at the Swiss Tropical Institute, Basel, Switzerland.

[1] = Solubility in DMSO (footnote to Table 2); assay type: physicochemical; set-up: key: *: Not fully soluble in DMSO; conditions: footnote mark on the anti-malarial activity value
Text: Table 2 Summary of anti-malarial activity and cytotoxicity | column: Average Anti-malarial Activity**(ng/ml)

[2] = P. falciparum, in vitro, data from two independent assays, read-out: Average Anti-malarial Activity (concentration corresponding to 50% inhibition)
[3] = P. falciparum, in vitro, read-out: IC50 (anti-malarial activity)

SMILES	IC50 (P. falciparum; [2])	IC50 (P. falciparum; [3])	Average Cytotoxicity (mammalian cytotoxicity)	further results
CC(NC(=O)CN1CCCN(CC(=O)NC(C)(C)C)CC1)c1ccc2c(c1)CCCC2 (stereo not shown) [GR-M002]	5.38 µg/mL	12500 nM	–	–
Cc1ccc(C)c(NCC(O)COc2ccc(OCC(O)CNc3cc(C)ccc3C)cc2)c1 (stereo not shown) [GR-M004]	4.78 µg/mL	10300 nM	–	–
Cc1ccc(Cn2cc(CCC(=O)NCCCN3CC(C)CC(C)C3)c3ccccc32)cc1 (stereo not shown) [GR-M007]	0.446 µg/mL	999 nM	10420 ng/mL	–
CCN(CC)CCCC(C)Nc1ccnc2cc(Cl)ccc12 (stereo not shown) [chloroquine, reference compound]	–	–	–	IC50 (P. falciparum; read-out: Average Anti-malarial Activity (concentration corresponding to 50% inhibition)): 0.0042 µg/mL; IC50 (P. falciparum; read-out: IC50 (anti-malarial activity)): 13 nM
CC(C)(C)CC(C)(C)Cc1ccc(OCCOCC[N+](C)(C)Cc2ccccc2)cc1 [GR-M011]	0.086 µg/mL	185 nM	3250 ng/mL	–
O=CN1CCN(CC(O)COc2ccc(OCC(O)CN3CCN(C=O)CC3)cc2)CC1 (stereo not shown) [GR-M003]	–	> 20000 nM	–	–
Cc1cccc[n+]1CCCCCCCCCC[n+]1ccccc1C [GR-M009]	0.013 µg/mL	27 nM	–	–
CC1=C(CCC(C)N(C)Cc2ccc(OCCCN3CCCC3)cc2)C(C)(C)CCC1 (stereo not shown) [GR-M010]	0.172 µg/mL	332 nM	4860 ng/mL	–
Cc1cccc(C)c1OCCOCC(O)CN1CCN(Cc2ccc3c(c2)OCO3)CC1 (stereo not shown) [GR-M005]	9.74 µg/mL	18900 nM	–	–
Cc1ccc2c(c1)N(CCCC(=O)NCCCN1CCC(Cc3ccccc3)CC1)C(=O)CO2 [GR-M006]	1.63 µg/mL	3520 nM	–	–
CC(C)(C)c1cnnn1-c1ccc(C=Cc2ccc(C=Cc3ccc4ccccc4n3)cc2)cc1 [GR-M001]	–	> 20000 nM	–	Solubility in DMSO [1]: *
COc1cc([C@@H]2c3cc4c(cc3[C@H](O)[C@H]3COC(=O)[C@H]23)OCO4)cc(OC)c1OC [Podophyllotoxin, reference compound]	–	–	9.5 ng/mL	–

— PMC3206494, “Discovery of potent, novel, non-toxic anti-malarial compounds via quantum modelling, virtual screening and in vitro experimental validation” (Malaria Journal, 2011)
